The results in this text go back to article PMC6934184, “Selective DNA-PKcs inhibition extends the therapeutic index of localized radiotherapy and chemotherapy” (The Journal of Clinical Investigation, 2019).

This experiment concerns the target T1, ERBB2 (HER2) (Homo sapiens, UniProt P04626).
T1 construct: purchased Thermo Fisher Scientific (Life Technologies) SelectScreen
Description: SelectScreen Z'LYTE. The experiment is classed as biochemical. In outline:
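Percent values come from Thermo SelectScreen profiling of NU5455, combining activity and binding assays. CSF1R was run in Z'LYTE format at Km app ATP, and CAMK1 in Adapta format with ATP listed at 10.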

SMILES strings stand for the structures.

T1 sequence (P04626 23-1255): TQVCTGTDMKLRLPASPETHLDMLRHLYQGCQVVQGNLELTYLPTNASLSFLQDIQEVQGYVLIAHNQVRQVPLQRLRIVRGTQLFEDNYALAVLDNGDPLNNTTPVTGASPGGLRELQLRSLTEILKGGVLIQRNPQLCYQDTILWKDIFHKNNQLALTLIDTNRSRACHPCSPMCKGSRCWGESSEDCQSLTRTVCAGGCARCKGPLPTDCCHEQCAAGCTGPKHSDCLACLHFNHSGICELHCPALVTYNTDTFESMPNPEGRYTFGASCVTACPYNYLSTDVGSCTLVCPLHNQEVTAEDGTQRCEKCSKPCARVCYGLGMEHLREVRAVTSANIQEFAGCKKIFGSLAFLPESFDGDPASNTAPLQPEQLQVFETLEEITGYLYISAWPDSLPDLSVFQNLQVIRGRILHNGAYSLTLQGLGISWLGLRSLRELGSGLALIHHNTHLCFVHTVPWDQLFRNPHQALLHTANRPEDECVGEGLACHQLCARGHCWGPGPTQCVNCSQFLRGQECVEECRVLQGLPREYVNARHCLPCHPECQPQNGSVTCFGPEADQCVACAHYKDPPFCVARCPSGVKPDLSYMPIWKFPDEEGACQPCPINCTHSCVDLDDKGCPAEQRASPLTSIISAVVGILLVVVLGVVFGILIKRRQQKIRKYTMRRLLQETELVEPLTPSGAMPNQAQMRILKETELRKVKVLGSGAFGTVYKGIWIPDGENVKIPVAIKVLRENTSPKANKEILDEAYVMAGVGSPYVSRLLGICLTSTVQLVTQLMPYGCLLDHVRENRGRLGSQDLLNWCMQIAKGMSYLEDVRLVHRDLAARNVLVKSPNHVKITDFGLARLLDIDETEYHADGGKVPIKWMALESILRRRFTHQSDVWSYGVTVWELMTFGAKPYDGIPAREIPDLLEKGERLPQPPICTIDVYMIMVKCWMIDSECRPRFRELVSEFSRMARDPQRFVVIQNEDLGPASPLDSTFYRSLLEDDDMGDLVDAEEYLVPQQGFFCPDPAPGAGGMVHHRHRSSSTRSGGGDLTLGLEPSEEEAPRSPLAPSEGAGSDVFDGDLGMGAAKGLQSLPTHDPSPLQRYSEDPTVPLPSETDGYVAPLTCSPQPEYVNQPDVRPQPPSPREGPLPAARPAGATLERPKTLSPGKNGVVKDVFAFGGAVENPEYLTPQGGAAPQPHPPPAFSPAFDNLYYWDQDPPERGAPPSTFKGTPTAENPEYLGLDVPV

As to `CN(C(=O)CN1CCOCC1)c1ccc2sc3c(-c4cccc5c(=O)cc(N6CC7CCC(C6)O7)oc45)cccc3c2c1` [NU5455], at 1 µM the inhibition was 5.6%.
